In patent publication US5710135A, “Anthracycline prodrugs, method for preparation as well as their use in selective chemotherapy” (Pharmachemie B.V., priority 1995, dated 1998) one finds IC50 and half-life data, which are given here for eight compounds.

Each structure is given as a SMILES string. Counter-ions that a name gives are not always drawn. Like-named read-outs stand apart in the source and are kept apart here. Bounds are passed on as bounds.

One data set deals with OVCAR-3 cells. The data set is described as follows: Anti-proliferative effect on OVCAR-3 cells (sulforhodamine B protein dye stain). Format: cell-based. To be noted: Homo sapiens. The procedure: The anti-proliferative effect of daunorubicin, doxorubicin and idarubicin, and of the prodrugs of examples 1 to 6 on OVCAR-3 cells was determined by measuring cell growth with a protein dye stain (H. J. Haisma et al. Br. J. Cancer 1992, 66, 474-478. Cells were harvested with 0.25 trypsin and 0.2% EDTA in PBS to obtain a single cell suspension and seeded in 96-wells tissue culture plates (2×10^6 cells/mL 10 μL/well, 3 wells per concentration). Drug or prodrug was added (10 μL/well) at different concentrations with a range of 3 or more logs. After incubation for 24 hours, 200 μL of culture medium (supplemented DMEM) was added and the cells were grown for another 72 hours. Cells were fixed with 25% trichloroacetic acid for 1 hour at 4° C. and washed with water. After staining the cells with 0.4% sulforhodamine B in 1% (v/v) acetic acid for 15 min. at room temperature, they were washed with 1% acetic acid and air-dried. The bound dye was solubilized with 10 mM unbuffered Tris and the absorbance was read at 492 nm. The absorbance was linear with cell concentrations from 1,000 to 200,000 cells/well. Separate wells were fixed 24 hours after seeding to substract background staining. The anti-proliferative effects were determined and expressed as IC50 values which are the (pro)drug concentrations that gave 50% growth inhibition when compared to control cell growth.
A general note: In SRB staining, fixed cells bind dye roughly in proportion to their protein.

For another data set, the target named is T1, β-glucuronidase (Homo sapiens, UniProt P08236).
T1 sequence (P08236 23-651): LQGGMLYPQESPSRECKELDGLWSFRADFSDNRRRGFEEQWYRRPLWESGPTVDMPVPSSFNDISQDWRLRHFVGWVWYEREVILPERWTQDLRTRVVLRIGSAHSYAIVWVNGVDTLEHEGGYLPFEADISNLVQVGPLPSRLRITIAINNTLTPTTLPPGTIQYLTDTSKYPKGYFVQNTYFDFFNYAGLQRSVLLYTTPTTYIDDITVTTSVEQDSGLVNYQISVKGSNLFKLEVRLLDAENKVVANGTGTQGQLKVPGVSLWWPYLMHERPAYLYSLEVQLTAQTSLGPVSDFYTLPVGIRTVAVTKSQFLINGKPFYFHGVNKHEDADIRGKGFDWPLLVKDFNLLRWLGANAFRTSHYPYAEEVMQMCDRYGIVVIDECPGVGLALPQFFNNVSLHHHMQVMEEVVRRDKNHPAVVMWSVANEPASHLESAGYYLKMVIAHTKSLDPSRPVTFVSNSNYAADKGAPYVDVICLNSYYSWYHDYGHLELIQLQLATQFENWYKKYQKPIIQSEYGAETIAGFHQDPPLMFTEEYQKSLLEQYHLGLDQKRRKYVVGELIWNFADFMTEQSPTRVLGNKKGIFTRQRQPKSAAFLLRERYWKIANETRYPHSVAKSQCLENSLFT
The data set is described as follows: Enzyme hydrolysis half-life with β-glucuronidase. Conditions: 100 μM prodrug, pH 6.8, 0.03 U/mL β-glucuronidase, 37° C.; read-out: T1/2 (min.) of enzyme hydrolysis. Format: biochemical. The procedure: (§1) Half-lifes of enzyme hydrolysis were determined by incubating 100 μM prodrug at pH =6.8 with 0.03 U/mL β-glucuronidase or 0.3 U/mL β-glucosidase or β-galactosidase at 37° C.

Data set [1] is described as follows: Enzyme hydrolysis half-life with β-glucosidase. To be noted: 100 μM prodrug, pH 6.8, 0.3 U/mL β-glucosidase, 37° C.; read-out: T1/2 (min.) of enzyme hydrolysis. Format: biochemical. As for the experimental part: as §1
[2] abbreviates: OVCAR-3 cells, 24 hours incubation with (pro)drug, then grown another 72 hours, read-out: IC50 (μM), (pro)drug concentration giving 50% growth inhibition.
Where [3] appears, read: OVCAR-3, read-out: IC50 (μM), (pro)drug concentration giving 50% growth inhibition.

Regarding `COc1cccc2c1C(=O)c1c(O)c3c(c(O)c1C2=O)C[C@@](O)(C(C)=O)C[C@@H]3O[C@H]1C[C@H](NC(=O)OCc2ccccc2NC(=O)O[C@@H]2O[C@H](C(=O)O)[C@@H](O)[C@H](O)[C@H]2O)[C@H](O)[C@H](C)O1` [1a-ortho, N-[2-(daunorubicin-N-carbonyl-oxymethyl)phenyl] O-β-glucuronyl carbamate sodium salt], the IC50 in the data set on OVCAR-3 cells (setting [2]) was found to be 20 µM. Besides, the half-life at 100 µM on β-glucuronidase was determined as 2.08 h.

Take `COc1cccc2c1C(=O)c1c(O)c3c(c(O)c1C2=O)C[C@@](O)(C(C)=O)C[C@@H]3O[C@H]1C[C@H](NC(=O)OCc2ccc(NC(=O)O[C@@H]3O[C@H](C(=O)O)[C@@H](O)[C@H](O)[C@H]3O)cc2)[C@H](O)[C@H](C)O1` [1a-para, N-[4-(daunorubicin-N-carbonyl-oxymethyl)phenyl] O-β-glucuronyl carbamate sodium salt]: in the data set with OVCAR-3 cells (setting [2]), the IC50 is 22 µM. Further, the half-life at 100 µM on β-glucuronidase is 2.25 h.

For the compound `COc1cccc2c1C(=O)c1c(O)c3c(c(O)c1C2=O)C[C@@](O)(C(=O)CO)C[C@@H]3O[C@H]1C[C@H](NC(=O)OCc2ccc(NC(=O)O[C@@H]3O[C@H](C(=O)O)[C@@H](O)[C@H](O)[C@H]3O)cc2)[C@H](O)[C@H](C)O1` [1b-para, N-[4-(doxorubicin-N-carbonyl-oxymethyl)phenyl] O-β-glucuronyl carbamate sodium salt], the IC50 in the data set with OVCAR-3 cells (setting [2]) was greater than 10 µM. The half-life at 100 µM at β-glucuronidase is 2.83 h.

In the case of `CC(=O)[C@]1(O)Cc2c(O)c3c(c(O)c2[C@@H](O[C@H]2C[C@H](NC(=O)OCc4ccc(NC(=O)O[C@@H]5O[C@H](C(=O)O)[C@@H](O)[C@H](O)[C@H]5O)cc4)[C@H](O)[C@H](C)O2)C1)C(=O)c1ccccc1C3=O` [1c-para, N-[4-(idarubicin-N-carbonyl-oxymethyl)phenyl] O-β-glucuronyl carbamate sodium salt], the IC50 in the data set with OVCAR-3 cells (setting [2]) is greater than 1 µM. At β-glucuronidase, the half-life at 100 µM is 2 h.

For the compound `COc1cccc2c1C(=O)c1c(O)c3c(c(O)c1C2=O)C[C@@](O)(C(C)=O)C[C@@H]3O[C@H]1C[C@H](NC(=O)OCc2ccc(NC(=O)O[C@@H]3O[C@H](CO)[C@@H](O)[C@H](O)[C@H]3O)cc2)[C@H](O)[C@H](C)O1` [1d-para, N-[4-(daunorubicin-N-carbonyl-oxymethyl)phenyl] O-β-glucosyl carbamate], the IC50 with OVCAR-3 cells (setting [2]) turned out to be 20 µM. For the same compound, the half-life at 100 µM in data set [1] was greater than 8.33 h.

`COc1cccc2c1C(=O)c1c(O)c3c(c(O)c1C2=O)C[C@@](O)(C(C)=O)C[C@@H]3O[C@H]1C[C@H](N)[C@H](O)[C@H](C)O1` [12a, daunorubicin, reference compound]: the IC50 in the data set on OVCAR-3 cells (setting [3]) turned out to be 1.2 µM.

For the compound `COc1cccc2c1C(=O)c1c(O)c3c(c(O)c1C2=O)C[C@@](O)(C(=O)CO)C[C@@H]3O[C@H]1C[C@H](N)[C@H](O)[C@H](C)O1` [12b, doxorubicin, reference compound], in the data set with OVCAR-3 cells (setting [3]), the IC50 was 1 µM.

Regarding `CC(=O)[C@]1(O)Cc2c(O)c3c(c(O)c2[C@@H](O[C@H]2C[C@H](N)[C@H](O)[C@H](C)O2)C1)C(=O)c1ccccc1C3=O` [12c, idarubicin, reference compound], in the data set on OVCAR-3 cells (setting [2]), the IC50 was determined as 0.1 µM.
